Assays:
E. coli = assay: Alleviation of 3-HP toxicity by adding downstream products of the chorismate superpathway; assay type: cell-based; details: added as supplement in the presence of 3-HP
Excerpt: The data shown in FIG. 4 depict identification of the chorismate superpathway as a target of 3-HP toxicity. In some embodiments, toxicity is alleviated by several processes.

wild type E. coli K12 = assay: 3-HP toxicity (growth inhibition) in E. coli; assay type: cell-based
Excerpt: Previous attempts to produce 3-HP via biological pathways provide product titers which have been low and these processes have required the use of expensive, rich media. Both of these factors limit commercial feasibility and profitability. The use of rich media was necessary due to the toxicity of 3-HP when fermented with the more economical minimal media. […] Further, the fermentative pathways reported by other investigators have not addressed and resolved the toxicity mechanisms of 3-HP to the host organisms. Further to issues related to commodity chemical production, which largely relies on petroleum-based starting materials, there is an increasing need to reduce the domestic usage of petroleum and natural gas. The numerous motivating factors for this increasing need include, but are not limited to: pollutant reduction (such as greenhouse gases), environmental protection, and reducing the dependence on foreign oil. These issues not only impact fuel markets, but also the markets of numerous other products that are currently derived from oil. Biorefining promises the development of efficient biological processes allowing for the conversion of renewable sources of carbon and energy into large volume commodity chemicals.
FIG. 2 depicts 3-hydroxpropionate toxicity in E. coli K12. The minimum concentration of 3-HP that is required to inhibit visible growth after 24 hrs in minimal media is shown for wild type E. coli K12 grown in both minimal media and rich media which contains more complex nutrients.
Severe growth inhibition has been observed for extracellular 3-HP levels as low as 10 g/L in minimal media (pH 7.0), which limits the economic feasibility of 3-HP production as a platform chemical. […] However toxicity at levels below required titers (100 g/L) are still observed in rich media.

[1] = test system: AB354 (ΔpanD) + pKK223-kgd; assay type: cell-based, E. coli; details: M9 minimal media plates with threonine, leucine, thiamine; 37 C overnight; 10 g/L beta-alanine, 1 mM IPTG, 0.2 g/L putrescine, 200 mg/L ampicillin where indicated
Experimental: (§1) E. coli AB354 (Δ panD) was transformed with the vector controls, pKK223, pKK223-Cterm-5×his (‘5×His’ disclosed as SEQ ID NO: 24), as well as the test vectors pKK223-mcr and pKK223-Cterm-5×His-kgd (‘5×His’ disclosed as SEQ ID NO: 24), according to standard methods described below. Each of the strains were grown overnight in LB rich media supplemented with 200 mg/L ampicillin (according to standard protocols). Following overnight growth, cells twice were harvested by centrifugation and washed by resuspension in M9 minimal media (standard protocol), diluted 1:10,000 and plated on M9 minimal media plates with 0.05 g/L threonine, 0.1 g/L leucine, 0.067 g/L thiamine, with the additional appropriate supplements, where indicated at the following concentrations (10 g/L beta-alanine (Sigma Aldrich, St. Louis, Mo.), 1 mM Isopropyl β-D-1-thiogalactopyranoside (Thermo Fisher Scientific, Fairlawn, N.J.), 0.2 g/L putrescine (MPBiomedicals, Santa Ana, Calif.), 200 mg/L ampicillin (Research Products International Corp., Mt. Prospect, Ill.) After plating, agarose plates were incubated at 37 C overnight by standard methods. […] A plus (+) indicates growth on a plate, minus (−) indicates no growth. […] Putrescine is known to induce the expression of gamma-aminobutyrate transaminase in E. coli. This enzyme has been shown in some species including Rattus norvegicus to also have beta-alanine aminotransferase activity.

K12 = assay type: cell-based, E. coli; details: M9 minimal media plates with threonine, leucine, thiamine; 37 C overnight; 10 g/L beta-alanine, 1 mM IPTG, 0.2 g/L putrescine, 200 mg/L ampicillin where indicated
Experimental: as §1

[2] = test system: AB354 (ΔpanD) + pKK223-mer; assay type: cell-based, E. coli; details: M9 minimal media plates with threonine, leucine, thiamine; 37 C overnight; 10 g/L beta-alanine, 1 mM IPTG, 0.2 g/L putrescine, 200 mg/L ampicillin where indicated
Experimental: as §1

AB354 (ΔpanD) + pKK223 = assay type: cell-based, E. coli; details: M9 minimal media plates with threonine, leucine, thiamine; 37 C overnight; 10 g/L beta-alanine, 1 mM IPTG, 0.2 g/L putrescine, 200 mg/L ampicillin where indicated
Experimental: as §1

AB354 (ΔpanD) = assay type: cell-based, E. coli; details: M9 minimal media plates with threonine, leucine, thiamine; 37 C overnight; 10 g/L beta-alanine, 1 mM IPTG, 0.2 g/L putrescine, 200 mg/L ampicillin where indicated
Experimental: as §1

O=C(O)c1cccc(O)c1O [2,3-dihydroxybenzoate]
effect of addition on 3-HP toxicity (E. coli): alleviate toxicity to a degree

O=C(O)CCO [3-HP, 3-hydroxypropionate]
extracellular 3-HP level at which severe growth inhibition is observed (wild type E. coli K12; minimal media (pH 7.0)): ≥ 10 g/L | 3-HP level at which toxicity is still observed (wild type E. coli K12; rich media): < 100 g/L | product titer at which toxic effects are observed, relative to desired titers (wild type E. coli K12; rich media): approximately two times lower than desired titers | 3-HP level at which metabolic activity is significantly inhibited, relative to the approximate 100 g/L titer (wild type E. coli K12; wild type E. coli, minimal media): 5-10 times lower

CC1(C)S[C@@H]2[C@H](NC(=O)[C@H](N)c3ccccc3)C(=O)N2[C@H]1C(=O)O [Amp, ampicillin]
growth on plate, strain AB354 (ΔpanD) + pKK223-kgd [1]: − | growth on plate, strain K12 (K12): − | growth on plate, strain AB354 (ΔpanD) + pKK223-mer [2]: − | growth on plate, strain AB354 (ΔpanD) + pKK223 (AB354 (ΔpanD) + pKK223): − | growth on plate, strain AB354 (ΔpanD) (AB354 (ΔpanD)): −

Nc1ccc(C(=O)O)cc1 [para-aminobenzoate]
effect of addition on 3-HP toxicity (E. coli): alleviate toxicity to a degree

O=C(O)c1ccc(O)cc1 [para-hydroxy-benzoate]
effect of addition on 3-HP toxicity (E. coli): alleviate toxicity to a degree

N[C@@H](Cc1ccccc1)C(=O)O [phenylalanine]
effect of addition on 3-HP toxicity (E. coli): alleviate toxicity to a degree

N[C@@H](Cc1ccc(O)cc1)C(=O)O [tyrosine]
effect of addition on 3-HP toxicity (E. coli): alleviate toxicity to a degree

NCCC(=O)O [β-alanine, beta-alanine]
growth on plate, strain AB354 (ΔpanD) + pKK223-kgd [1]: + | growth on plate, strain K12 (K12): + | growth on plate, strain AB354 (ΔpanD) + pKK223-mer [2]: + | growth on plate, strain AB354 (ΔpanD) + pKK223 (AB354 (ΔpanD) + pKK223): + | growth on plate, strain AB354 (ΔpanD) (AB354 (ΔpanD)): +
